Reference: ChEMBL document CHEMBL1151278, “Hygrocins a and B, naphthoquinone macrolides from Streptomyces hygroscopicus” (2005)
Converted amounts (≈) assume the structure as drawn.

What was measured:
Format in all cases: functional
Streptococcus pneumoniae [1] = assay: Antibacterial activity against Streptococcus pneumoniae by NCCLS M27A method
Aspergillus niger = assay: Antifungal activity against Aspergillus niger by NCCLS M27A method
Haemophilus influenzae [2] = assay: Antibacterial activity against Haemophilus influenzae by NCCLS M27A method
Neisseria gonorrhoeae [3] = assay: Antibacterial activity against Neisseria gonorrhoeae by NCCLS M27A method
Candida albicans = assay: Antifungal activity against Candida albicans by NCCLS M27A method
Aspergillus fumigatus = assay: Antifungal activity against Aspergillus fumigatus by NCCLS M27A method
Staphylococcus aureus [4] = assay: Antibacterial activity against Staphylococcus aureus 2999 by NCCLS M27A method
Escherichia coli [5] = assay: Antibacterial activity against Escherichia coli 1074 by NCCLS M27A method
Enterococcus faecalis [6] = assay: Antibacterial activity against Streptococcus faecalis 1362/3 by NCCLS M27A method
Neisseria gonorrhoeae [7] = assay: Antibacterial activity against Neisseria gonorrhoeae
Streptococcus pneumoniae [8] = assay: Antibacterial activity against Streptococcus pneumoniae
Haemophilus influenzae [9] = assay: Antibacterial activity against Haemophilus influenzae
Escherichia coli [10] = assay: Antibacterial activity against Escherichia coli 1074
Enterococcus faecalis [11] = assay: Antibacterial activity against Streptococcus faecalis 1362/3
Staphylococcus aureus [12] = assay: Antibacterial activity against Staphylococcus aureus 2999

| SMILES | MIC (Streptococcus pneumoniae [1]) | MIC (Aspergillus niger) | MIC (Haemophilus influenzae [2]) | MIC (Neisseria gonorrhoeae [3]) | MIC (Candida albicans) | MIC (Aspergillus fumigatus) | MIC (Staphylococcus aureus [4]) | MIC (Escherichia coli [5]) | MIC (Enterococcus faecalis [6]) | MIC (Neisseria gonorrhoeae [7]) | MIC (Streptococcus pneumoniae [8]) | MIC (Haemophilus influenzae [9]) | MIC (Escherichia coli [10]) | MIC (Enterococcus faecalis [11]) | MIC (Staphylococcus aureus [12]) |
| --- | --- | --- | --- | --- | --- | --- | --- | --- | --- | --- | --- | --- | --- | --- | --- |
| CCC1/C=C/[C@H](O)[C@H](C)OC(=O)[C@@]2(C)C=CC(=O)NC3=C2C(=O)c2c(cc(C)c(O)c2C(=O)CC1)C3=O (some centres undefined) [HYGROCIN B] | 128 µg/mL (≈ 252 µM) | 64 µg/mL (≈ 126 µM) | 128 µg/mL (≈ 252 µM) | 128 µg/mL (≈ 252 µM) | 128 µg/mL (≈ 252 µM) | 32 µg/mL (≈ 63 µM) | 128 µg/mL (≈ 252 µM) | 128 µg/mL (≈ 252 µM) | 128 µg/mL (≈ 252 µM) | – | – | – | – | – | – |
| CCC1/C=C/[C@H](O)[C@H](C)OC(=O)/C(C)=C\CC(=O)NC2=CC(=O)c3c(cc(C)c(O)c3C(=O)CC1)C2=O (some centres undefined) [HYGROCIN A] | 16 µg/mL (≈ 31.4 µM) | 32 µg/mL (≈ 62.8 µM) | 128 µg/mL (≈ 251 µM) | 64 µg/mL (≈ 126 µM) | 128 µg/mL (≈ 251 µM) | 16 µg/mL (≈ 31.4 µM) | 128 µg/mL (≈ 251 µM) | 128 µg/mL (≈ 251 µM) | 128 µg/mL (≈ 251 µM) | – | – | – | – | – | – |
| CO[C@H]1/C=C/O[C@@]2(C)Oc3c(C)c(O)c4c(c3C2=O)C(=O)C=C(NC(=O)/C(C)=C\C=C\[C@H](C)[C@H](O)[C@@H](C)[C@@H](O)[C@@H](C)[C@H](OC(C)=O)[C@@H]1C)C4=O [RIFAMYCIN S] | – | – | – | – | – | – | – | – | – | 0.1 µg/mL (≈ 0.144 µM) | 0.1 µg/mL (≈ 0.144 µM) | 0.01 µg/mL (≈ 0.0144 µM) | 128 µg/mL (≈ 184 µM) | 16 µg/mL (≈ 23 µM) | 0.01 µg/mL (≈ 0.0144 µM) |
